Assay results from patent US7417043B2, “Modulators of dopamine neurotransmission” (NeuroSearch Sweden AB, priority 1999, dated 2008).
Counter-ions that a name gives are not always drawn.

Columns and labels:
non-pre-treated rat = assay: In vivo test: behavior, motility meter, non-pre-treated rats; details: for behavioral (motor) activity: 60 min session
[1] = tested on: 3,4-dihydroxyphenylacetic acid in the striatum; assay: In vivo test: neurochemistry, DOPAC in brain tissue; set-up: species or system rat; details: for 3,4-dihydroxyphenylacetic acid in the striatum: rat
From the text: (§1) In vivo Test: Neurochemistry
(§2) After the behavioral activity sessions the rats were decapitated and their brains rapidly taken out and put on an ice-cold petri-dish. The limbic forebrain, the striatum, the frontal cortex and the remaining hemispheral parts of each rat were dissected and frozen. Each brain part was subsequently analyzed with respect to its content of monoamines and their metabolites. The monoaminergic indices analyzed were dopamine (DA), 3,4-dihydroxyphenylacetic acid (DOPAC), homovanillic acid (HVA), 3-methoxytyramine (3-MT), serotonin (5-HT), 5-hydroxyindole acetic acid ([…]), and noradrenaline (NA).

[2] = tested on: 5-hydroxyindoleacetic acid in the striatum; assay: In vivo test: neurochemistry, 5-hydroxyindoleacetic acid in brain tissue; details: rat; for 5-hydroxyindoleacetic acid in the striatum: 50 μmol/kg s.c.
From the text: as §1
as §2, with “(NA). All monoaminergic indices in the dissected tissue were analyzed by means of HPLC with electrochemical detection as described by Svensson K, et al., 1986, Naunynschmiedeberg's Arch Pharmacol 334: 234-245 and references cited therein.” for “(NA).”

[3] = tested on: rats pre-treated with d-amphetamine; assay: In vivo test: behavior, d-amphetamine induced hyperactivity
serotonin (5-HT) = assay: In vivo test: neurochemistry, serotonin in brain tissue; details: rat, 50 μmol/kg s.c.
From the text: as §1
as §2, with “(NA). All monoaminergic indices in the dissected tissue were analyzed by means of HPLC with electrochemical detection as described by Svensson K, et al., 1986, Naunynschmiedeberg's Arch Pharmacol 334: 234-245 and references cited therein.” for “(NA).”

[4] = tested on: serotonin behavioral syndrome; assay: Serotonin behavioral syndrome; assay type: in vivo; details: rat
5-HT1A receptor = target: T1, 5-HT1A receptor (Homo sapiens, UniProt P08908); details: reported in WO 93/00313; cited from earlier work
T1 sequence (P08908 1-422): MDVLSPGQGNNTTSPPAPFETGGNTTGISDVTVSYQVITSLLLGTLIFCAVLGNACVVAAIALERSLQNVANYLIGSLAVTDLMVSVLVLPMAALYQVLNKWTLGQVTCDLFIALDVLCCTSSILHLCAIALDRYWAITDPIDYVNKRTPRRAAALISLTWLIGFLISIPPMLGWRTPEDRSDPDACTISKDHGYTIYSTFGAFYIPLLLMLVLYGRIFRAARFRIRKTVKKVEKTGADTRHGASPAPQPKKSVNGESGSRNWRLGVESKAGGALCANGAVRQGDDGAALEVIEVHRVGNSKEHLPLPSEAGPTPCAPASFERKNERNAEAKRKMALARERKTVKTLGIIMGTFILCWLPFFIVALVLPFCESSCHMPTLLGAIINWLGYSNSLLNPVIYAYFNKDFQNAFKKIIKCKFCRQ

habituated rats = details: animals habituated to the motilitymeter box, 50 μmol/kg s.c.
[5] = tested on: rats pre-treated with dizolcipine (Mk-801); details: Mk-801 0,7 mg/kg i.p.; test compound 50 μmol/kg sc
sigma receptor = details: 10 μmol/L, rat brain membranes
[6] = non-pre-treated rat, 33 μmol/kg (s.c.)
[7] = non-pre-treated rat, 50 μmol/kg s.c.

CCCN1CCN(c2cccc(C#N)c2)CC1 [3-(4-Propyl-piperazine-1-yl)-benzonitrile]
behavioral activity (non-pre-treated rat; rat, 100 μmol/kg s.c.): 634±266 cm/60 min
3,4-dihydroxyphenylacetic acid in the striatum ([1]; 100 μmol/kg s.c.): 4498±243 ng/g tissue
5-hydroxyindole acetic acid ([2]; 100 μmol/kg s.c.): 484±26 ng/g tissue

CCCCN1CCC(c2cccc(C(F)(F)F)c2)CC1 (as salt: HCl) [Example 5, 1-Butyl-4-(3-trifluoromethyl-phenyl)piperidine]
melting point: 222 °C

CCCN1CCC(c2ccccc2)CC1 [4-phenyl-1-propyl-piperidine]
behavioral activity (non-pre-treated rat; [6]): 2553±471 cm/60 min
3,4-dihydroxyphenylacetic acid in the striatum ([1]; 33 μmol/kg s.c.): 1190±70 ng/g tissue
behavioral activity in the d-amphetamine stimulated ([3]; d-amphetamine pre-treated, test compound 33 μmol/kg): 13764±2919 cm/60 min

CC(C)N1CCC(c2cccc(S(C)(=O)=O)c2)CC1 (as salt: HCl) [Example 9, 1-Isopropyl-4-(3-methanesulfonyl-phenyl)-piperidine]
melting point: 220 °C

CCCN1CCC(c2cccc(C#N)c2)CC1 (as salt: fumarate)
melting point: 122 °C

CCCN1CCN(c2cccc(C(F)(F)F)c2)CC1 [1-propyl-4-(3-triflouro-methyl-phenyl) piperazine]
behavioral (motor) activity (non-pre-treated rat; [7]): 271±137 cm/60 min
3,4-dihydroxyphenylacetic acid in the striatum ([1]; 50 μmol/kg s.c.): 3358±162 ng/g tissue

CCCN1CCC(c2cccc(C(F)(F)F)c2)CC1 (as salt: HCl)
melting point: 195 °C

CCN1CCC(c2cccc(S(C)(=O)=O)c2)CC1 (as salt: HCl) [Example 8, 4-(3-Methanesulfonyl-phenyl)-1-ethyl-piperidine]
melting point: 158 °C

CC(C)CN1CCC(c2cccc(S(C)(=O)=O)c2)CC1 (as salt: HCl) [Example 11, 1-Isobutyl-4-(3-methanesulfonyl-phenyl)-piperidine]
melting point: 212 °C

Br.CCCN1CCC(c2cccc(O)c2)CC1 [preparation 14, 3-(1-Propyl-piperidin-4-yl)-phenol×HBr]
3,4-dihydroxyphenylacetic acid in the striatum ([1]; 50 μmol/kg s.c.): 1169±42 ng/g tissue

CCCN1CCN(c2cccc(OS(C)(=O)=O)c2)CC1 (as salt: fumarate) [Example 17, Methanesulfonic acid 3-(4-propyl-piperazin-1-yl)-phenyl ester]
melting point: 143 to 144 °C

CCCN1CCN(c2cccc(C(C)=O)c2)CC1 (as salt: oxalate)
melting point: 119 °C

CS(=O)(=O)c1cccc(N2CCN(CCO)CC2)c1 [2-[4-(3-methanesulfonyl-phenyl)piperazin-1-yl]-ethanol]
behavioral activity (non-pre-treated rat; [6]): 3782±962 cm/60 min
3,4-dihydroxyphenylacetic acid in the striatum ([1]; 33 μmol/kg s.c.): 1239±162 ng/g tissue

CCCN1CCC(c2cccc(OS(C)(=O)=O)c2)CC1 [Example 14, Methanesulfonic acid 3-(1-propyl-piperidin-4-yl)-phenyl ester]
behavioral activity (non-pre-treated rat; rat, 50 μmol/kg s.c., 30 min session): 2126±240 cm/30 min
3,4-dihydroxyphenylacetic acid in the striatum ([1]; 50 μmol/kg s.c.): 3208±236 ng/g tissue

CCCN1CCN(c2cccc(S(C)(=O)=O)c2)CC1 (as salt: HCl)
melting point: 233 °C

CS(=O)(=O)c1cccc(C2CCN(Cc3ccccc3)CC2)c1 [1-benzyl-4-(3-methanesulfonyl-phenyl)-piperidine]
5-hydroxyindoleacetic acid in the striatum [2]: 487±7 ng/g tissue
serotonin (5-HT) (serotonin (5-HT)): 345±18 ng/g tissue
serotonin behavioral syndrome [4]: induces the serotonin behavioral syndrome

FC(F)(F)c1cccc(N2CCN(CCc3ccccc3)CC2)c1 [1-phenethyl-4-(3-trifluoromethyl-phenyl)-piperazine]
3,4-dihydroxyphenylacetic acid in the striatum ([1]; 50 μmol/kg s.c.): 1406±77 ng/g tissue
5-hydroxyindoleacetic acid in the striatum [2]: 289±16 ng/g tissue
serotonin (5-HT) (serotonin (5-HT)): 282±6 ng/g tissue
IC50 (5-HT1A receptor): 20.3 nM

Oc1cccc(C2CCN(Cc3ccccc3)CC2)c1 [3-(1-Benzyl-piperidin-4-yl)-phenol, 3-(1-benzyl-piperidin-4-yl)-phenol]
5-hydroxyindoleacetic acid in the striatum [2]: 492±26 ng/g tissue
serotonin in the limbic region (5-HT) (serotonin (5-HT); limbic region): 677±20 ng/g tissue

CCCN1CCC(c2ccc(S(C)(=O)=O)cc2)CC1 [4-(4-methanesulphonyl-phenyl)-1-propyl piperidine]
3,4-dihydroxyphenylacetic acid in the striatum ([1]; 50 μmol/kg s.c.): 928±51 ng/g tissue

CCCN1CCN(c2ccccc2OC)CC1 [1-(2-methoxy-phenyl)-4-propyl piperazine]
behavioral (motor) activity (non-pre-treated rat; [7]): 67±34 cm/60 min
3,4-dihydroxyphenylacetic acid in the striatum ([1]; 50 μmol/kg s.c.): 3836±65 ng/g tissue

CCCN1CCC(c2cccc(S(C)(=O)=O)c2)CC1 [Example 6, 4-(3-Methanesulfonyl-phenyl)-1-propyl-piperidine]
behavioral (motor) activity (non-pre-treated rat; [7]): 2879±398 cm/60 min
4-dihydroxyphenylacetic acid in the striatum ([1]; habituated animals, 50 μmol/kg s.c.): 2074±144 ng/g tissue
3,4-dihydroxyphenylacetic acid in the striatum ([1]; 50 μmol/kg s.c.): 1703±19 ng/g tissue
behavioral activity (habituated rats): 1243±72 cm/60 min
behavioral activation induced by dizolcipine (Mk-801) [5]: 18197±1389 cm/60 min
inhibition of [3H]-DTG binding (sigma receptor): < 50%
d-Amphetamine hyperactivity ([3]; d-amphetamine 1.5 mg/kg s.c., test compound 50 μmol/kg s.c.): 1839±344 cm/60 min

CCCN1CCN(c2ccccc2)CC1 [1-phenyl-4-propyl-piperazine]
behavioral activity (non-pre-treated rat; [6]): 1923±204 cm/60 min
